Biological target: PikDH2 (PikKR2-DH2 didomain) (Streptomyces venezuelae, UniProt Q9ZGI5)
Test: time-dependent inactivation, Kitz-Wilson plot
Type: biochemical
Conditions: read-out: KI; covalent; mechanism-based irreversible inhibitor; substrate 2a; 10 to 40 μM inhibitor

PikDH2 (PikKR2-DH2 didomain), sequence (Q9ZGI5 3579-4365): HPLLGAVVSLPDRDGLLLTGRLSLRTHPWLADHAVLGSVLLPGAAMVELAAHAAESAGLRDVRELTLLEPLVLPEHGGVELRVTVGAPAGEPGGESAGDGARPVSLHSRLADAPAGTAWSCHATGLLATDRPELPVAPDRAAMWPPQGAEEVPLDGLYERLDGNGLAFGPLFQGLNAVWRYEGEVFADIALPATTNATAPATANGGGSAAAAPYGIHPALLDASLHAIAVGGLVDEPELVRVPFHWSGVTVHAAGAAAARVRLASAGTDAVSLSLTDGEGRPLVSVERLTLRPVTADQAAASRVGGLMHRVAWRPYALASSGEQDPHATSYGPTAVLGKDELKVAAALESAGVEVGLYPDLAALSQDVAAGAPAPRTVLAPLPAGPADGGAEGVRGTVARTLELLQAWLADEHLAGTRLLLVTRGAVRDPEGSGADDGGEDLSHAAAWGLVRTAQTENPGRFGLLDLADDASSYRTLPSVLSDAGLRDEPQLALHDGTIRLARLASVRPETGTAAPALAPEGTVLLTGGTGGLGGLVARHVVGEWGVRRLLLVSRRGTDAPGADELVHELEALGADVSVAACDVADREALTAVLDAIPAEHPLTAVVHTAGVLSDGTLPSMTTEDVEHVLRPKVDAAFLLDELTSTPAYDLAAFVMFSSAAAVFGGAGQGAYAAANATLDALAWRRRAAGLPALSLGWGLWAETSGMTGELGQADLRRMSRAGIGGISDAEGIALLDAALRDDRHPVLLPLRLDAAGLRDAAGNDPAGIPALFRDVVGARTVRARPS

KI (inactivation): 156 ± 34 µM
SMILES: CCCCCCC#CCC(=O)SCCNC(C)=O [compound 6, 3-Decynoyl-N-acetylcysteamine]
